Test results as given in patent US8772480B2, “Inhibitors of PI3 kinase and/or mTOR” (priority 2009, dated 2014).

Key:
Assay type in all cases: biochemical
[1] = biological target: ProfilerPro Kinase Selectivity Assay Kit kinases (Homo sapiens, UniProt P31751); conditions: AKT2; 1 μM compound concentration
[2] = biological target: ProfilerPro Kinase Selectivity Assay Kit kinases (Homo sapiens, UniProt Q06187); conditions: BTK; 1 μM compound concentration
[3] = biological target: ProfilerPro Kinase Selectivity Assay Kit kinases (Homo sapiens, UniProt Q13188); conditions: MST2; 1 μM compound concentration
[4] = biological target: ProfilerPro Kinase Selectivity Assay Kit kinases (Homo sapiens, UniProt Q9P1W9); conditions: PIM2; 1 μM compound concentration
[5] = biological target: ProfilerPro Kinase Selectivity Assay Kit kinases (Homo sapiens, UniProt P06213); conditions: INSR; 1 μM compound concentration
[6] = biological target: ProfilerPro Kinase Selectivity Assay Kit kinases (Homo sapiens, UniProt Q9P0L2); conditions: MARK1; 1 μM compound concentration
[7] = biological target: ProfilerPro Kinase Selectivity Assay Kit kinases (Homo sapiens, UniProt P06241); conditions: FYN; 1 μM compound concentration
[8] = biological target: ProfilerPro Kinase Selectivity Assay Kit kinases (Homo sapiens, UniProt O96017); conditions: CHK2; 1 μM compound concentration
[9] = biological target: ProfilerPro Kinase Selectivity Assay Kit kinases (Homo sapiens, UniProt O95819); conditions: HGK; 1 μM compound concentration
[10] = biological target: ProfilerPro Kinase Selectivity Assay Kit kinases (Homo sapiens, UniProt P24941); conditions: CDK2; 1 μM compound concentration
[11] = biological target: ProfilerPro Kinase Selectivity Assay Kit kinases (Homo sapiens, UniProt Q13177); conditions: PAK2; 1 μM compound concentration
[12] = biological target: ProfilerPro Kinase Selectivity Assay Kit kinases (Homo sapiens, UniProt Q15418); conditions: RSK1; 1 μM compound concentration
[13] = biological target: ProfilerPro Kinase Selectivity Assay Kit kinases (Homo sapiens, UniProt P06239); conditions: LCK; 1 μM compound concentration
[14] = biological target: ProfilerPro Kinase Selectivity Assay Kit kinases (Homo sapiens, UniProt Q05513); conditions: PKC zeta; 1 μM compound concentration
[15] = biological target: ProfilerPro Kinase Selectivity Assay Kit kinases (Homo sapiens, UniProt O75116); conditions: ROCK2; 1 μM compound concentration
[16] = biological target: ProfilerPro Kinase Selectivity Assay Kit kinases (Homo sapiens, UniProt P17612); conditions: PKA alpha; 1 μM compound concentration
[17] = biological target: ProfilerPro Kinase Selectivity Assay Kit kinases (Homo sapiens, UniProt P43405); conditions: SYK; 1 μM compound concentration
[18] = biological target: ProfilerPro Kinase Selectivity Assay Kit kinases (Homo sapiens, UniProt P49137); conditions: MAPKAPK2; 1 μM compound concentration
[19] = biological target: ProfilerPro Kinase Selectivity Assay Kit kinases (Homo sapiens, UniProt P12931); conditions: SRC; 1 μM compound concentration
[20] = biological target: ProfilerPro Kinase Selectivity Assay Kit kinases (Homo sapiens, UniProt P31749); conditions: AKT1; 1 μM compound concentration
[21] = biological target: ProfilerPro Kinase Selectivity Assay Kit kinases (Homo sapiens, UniProt P48730); conditions: CK1 delta; 1 μM compound concentration
[22] = biological target: ProfilerPro Kinase Selectivity Assay Kit kinases (Homo sapiens, UniProt Q16566); conditions: CAMK4; 1 μM compound concentration
[23] = biological target: ProfilerPro Kinase Selectivity Assay Kit kinases (Homo sapiens, UniProt P36888); conditions: FLT3; 1 μM compound concentration
[24] = biological target: ProfilerPro Kinase Selectivity Assay Kit kinases (Homo sapiens, UniProt O14965); conditions: AURORA A; 1 μM compound concentration
[25] = biological target: ProfilerPro Kinase Selectivity Assay Kit kinases (Homo sapiens, UniProt O14757); conditions: CHK1; 1 μM compound concentration
[26] = biological target: ProfilerPro Kinase Selectivity Assay Kit kinases (Homo sapiens, UniProt P28482); conditions: ERK2; 1 μM compound concentration
[27] = biological target: ProfilerPro Kinase Selectivity Assay Kit kinases (Homo sapiens, UniProt P08069); conditions: IGF1R; 1 μM compound concentration
[28] = biological target: ProfilerPro Kinase Selectivity Assay Kit kinases (Homo sapiens, UniProt Q8IW41); conditions: PRAK; 1 μM compound concentration
[29] = biological target: ProfilerPro Kinase Selectivity Assay Kit kinases (Homo sapiens, UniProt Q13627); conditions: DYRK1a; 1 μM compound concentration
[30] = biological target: ProfilerPro Kinase Selectivity Assay Kit kinases (Homo sapiens, UniProt P35968); conditions: KDR; 1 μM compound concentration
[31] = biological target: ProfilerPro Kinase Selectivity Assay Kit kinases (Homo sapiens, UniProt P07948); conditions: LYN; 1 μM compound concentration

Chain of ProfilerPro Kinase Selectivity Assay Kit kinases (Homo sapiens, UniProt P35968) (P35968 20-1356 limits assumed): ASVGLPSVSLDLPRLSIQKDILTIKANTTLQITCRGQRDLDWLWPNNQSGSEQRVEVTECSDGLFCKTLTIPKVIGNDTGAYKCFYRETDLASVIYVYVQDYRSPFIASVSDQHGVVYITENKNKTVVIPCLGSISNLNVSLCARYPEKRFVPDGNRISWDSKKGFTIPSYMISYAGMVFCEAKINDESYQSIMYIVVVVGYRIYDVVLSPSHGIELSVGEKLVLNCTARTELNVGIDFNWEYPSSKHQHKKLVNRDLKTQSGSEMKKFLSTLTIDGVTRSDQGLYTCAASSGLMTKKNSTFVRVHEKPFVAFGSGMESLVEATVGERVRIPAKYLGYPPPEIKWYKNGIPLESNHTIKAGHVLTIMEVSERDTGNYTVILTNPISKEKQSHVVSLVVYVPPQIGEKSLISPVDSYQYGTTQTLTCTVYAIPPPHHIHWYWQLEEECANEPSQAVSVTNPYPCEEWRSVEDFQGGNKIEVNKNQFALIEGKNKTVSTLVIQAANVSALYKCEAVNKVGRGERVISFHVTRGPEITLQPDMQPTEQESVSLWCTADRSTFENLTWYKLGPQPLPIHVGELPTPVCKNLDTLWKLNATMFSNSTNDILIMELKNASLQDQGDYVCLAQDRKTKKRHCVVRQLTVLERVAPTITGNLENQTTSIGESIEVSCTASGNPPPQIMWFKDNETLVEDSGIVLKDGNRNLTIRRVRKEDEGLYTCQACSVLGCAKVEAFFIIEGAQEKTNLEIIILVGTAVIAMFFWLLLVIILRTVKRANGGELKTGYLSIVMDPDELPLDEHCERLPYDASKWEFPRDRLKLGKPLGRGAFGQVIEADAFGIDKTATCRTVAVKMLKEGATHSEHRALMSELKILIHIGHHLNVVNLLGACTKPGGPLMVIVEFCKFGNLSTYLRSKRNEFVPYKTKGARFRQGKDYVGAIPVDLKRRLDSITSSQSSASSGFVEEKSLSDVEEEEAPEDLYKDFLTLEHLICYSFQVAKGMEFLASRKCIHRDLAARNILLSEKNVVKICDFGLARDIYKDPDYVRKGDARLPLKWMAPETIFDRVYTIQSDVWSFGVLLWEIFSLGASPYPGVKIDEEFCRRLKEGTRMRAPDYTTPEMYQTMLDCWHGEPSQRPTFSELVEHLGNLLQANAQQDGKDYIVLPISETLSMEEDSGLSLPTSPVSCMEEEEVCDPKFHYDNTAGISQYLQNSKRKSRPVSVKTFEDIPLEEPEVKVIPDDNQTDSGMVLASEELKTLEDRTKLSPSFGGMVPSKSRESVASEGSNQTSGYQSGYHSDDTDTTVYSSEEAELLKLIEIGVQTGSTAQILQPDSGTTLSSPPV
Chain of ProfilerPro Kinase Selectivity Assay Kit kinases (Homo sapiens, UniProt P06239) (P06239 2-509 limits assumed): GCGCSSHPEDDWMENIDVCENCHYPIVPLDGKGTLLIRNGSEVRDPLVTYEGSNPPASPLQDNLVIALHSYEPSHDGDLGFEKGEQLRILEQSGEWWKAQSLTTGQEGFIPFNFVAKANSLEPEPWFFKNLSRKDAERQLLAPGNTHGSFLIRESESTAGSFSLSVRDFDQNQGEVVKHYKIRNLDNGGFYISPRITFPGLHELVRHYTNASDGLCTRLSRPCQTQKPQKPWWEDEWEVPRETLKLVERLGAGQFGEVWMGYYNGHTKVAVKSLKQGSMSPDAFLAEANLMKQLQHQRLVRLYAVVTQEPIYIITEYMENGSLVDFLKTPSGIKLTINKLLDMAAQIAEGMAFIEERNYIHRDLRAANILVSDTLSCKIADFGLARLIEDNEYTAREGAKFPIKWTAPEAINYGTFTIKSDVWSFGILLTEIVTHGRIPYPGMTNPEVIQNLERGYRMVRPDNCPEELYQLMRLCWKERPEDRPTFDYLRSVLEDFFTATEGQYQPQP
Chain of ProfilerPro Kinase Selectivity Assay Kit kinases (Homo sapiens, UniProt Q13177) (Q13177 2-524 limits assumed): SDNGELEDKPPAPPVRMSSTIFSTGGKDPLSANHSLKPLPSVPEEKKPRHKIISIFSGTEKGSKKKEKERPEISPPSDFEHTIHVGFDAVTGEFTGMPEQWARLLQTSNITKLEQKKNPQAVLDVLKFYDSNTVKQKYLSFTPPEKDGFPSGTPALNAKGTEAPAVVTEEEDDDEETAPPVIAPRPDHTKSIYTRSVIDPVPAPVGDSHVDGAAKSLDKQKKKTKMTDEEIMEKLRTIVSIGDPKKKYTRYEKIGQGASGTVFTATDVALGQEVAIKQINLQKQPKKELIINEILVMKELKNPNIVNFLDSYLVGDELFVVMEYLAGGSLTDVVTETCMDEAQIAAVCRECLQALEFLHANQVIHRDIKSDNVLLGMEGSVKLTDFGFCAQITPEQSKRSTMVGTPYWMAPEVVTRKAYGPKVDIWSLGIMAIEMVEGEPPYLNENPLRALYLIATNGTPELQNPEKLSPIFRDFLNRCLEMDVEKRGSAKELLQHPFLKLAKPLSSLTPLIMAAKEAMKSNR
Chain of ProfilerPro Kinase Selectivity Assay Kit kinases (Homo sapiens, UniProt P12931) (P12931 2-536 limits assumed): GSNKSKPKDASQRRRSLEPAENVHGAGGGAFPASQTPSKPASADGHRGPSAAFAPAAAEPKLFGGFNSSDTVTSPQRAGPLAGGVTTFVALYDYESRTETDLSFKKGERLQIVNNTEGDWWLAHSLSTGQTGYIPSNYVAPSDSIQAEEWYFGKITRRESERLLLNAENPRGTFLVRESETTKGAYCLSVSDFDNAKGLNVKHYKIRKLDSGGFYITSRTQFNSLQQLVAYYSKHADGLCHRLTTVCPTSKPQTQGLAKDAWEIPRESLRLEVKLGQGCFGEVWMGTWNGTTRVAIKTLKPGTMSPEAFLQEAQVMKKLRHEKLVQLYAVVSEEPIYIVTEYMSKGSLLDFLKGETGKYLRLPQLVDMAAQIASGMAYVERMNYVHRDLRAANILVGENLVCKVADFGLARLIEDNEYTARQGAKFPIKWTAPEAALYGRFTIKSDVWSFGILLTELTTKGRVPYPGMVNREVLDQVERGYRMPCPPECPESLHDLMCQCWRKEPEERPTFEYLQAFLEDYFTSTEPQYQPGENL
Chain of ProfilerPro Kinase Selectivity Assay Kit kinases (Homo sapiens, UniProt O95819) (O95819 2-1239 limits assumed): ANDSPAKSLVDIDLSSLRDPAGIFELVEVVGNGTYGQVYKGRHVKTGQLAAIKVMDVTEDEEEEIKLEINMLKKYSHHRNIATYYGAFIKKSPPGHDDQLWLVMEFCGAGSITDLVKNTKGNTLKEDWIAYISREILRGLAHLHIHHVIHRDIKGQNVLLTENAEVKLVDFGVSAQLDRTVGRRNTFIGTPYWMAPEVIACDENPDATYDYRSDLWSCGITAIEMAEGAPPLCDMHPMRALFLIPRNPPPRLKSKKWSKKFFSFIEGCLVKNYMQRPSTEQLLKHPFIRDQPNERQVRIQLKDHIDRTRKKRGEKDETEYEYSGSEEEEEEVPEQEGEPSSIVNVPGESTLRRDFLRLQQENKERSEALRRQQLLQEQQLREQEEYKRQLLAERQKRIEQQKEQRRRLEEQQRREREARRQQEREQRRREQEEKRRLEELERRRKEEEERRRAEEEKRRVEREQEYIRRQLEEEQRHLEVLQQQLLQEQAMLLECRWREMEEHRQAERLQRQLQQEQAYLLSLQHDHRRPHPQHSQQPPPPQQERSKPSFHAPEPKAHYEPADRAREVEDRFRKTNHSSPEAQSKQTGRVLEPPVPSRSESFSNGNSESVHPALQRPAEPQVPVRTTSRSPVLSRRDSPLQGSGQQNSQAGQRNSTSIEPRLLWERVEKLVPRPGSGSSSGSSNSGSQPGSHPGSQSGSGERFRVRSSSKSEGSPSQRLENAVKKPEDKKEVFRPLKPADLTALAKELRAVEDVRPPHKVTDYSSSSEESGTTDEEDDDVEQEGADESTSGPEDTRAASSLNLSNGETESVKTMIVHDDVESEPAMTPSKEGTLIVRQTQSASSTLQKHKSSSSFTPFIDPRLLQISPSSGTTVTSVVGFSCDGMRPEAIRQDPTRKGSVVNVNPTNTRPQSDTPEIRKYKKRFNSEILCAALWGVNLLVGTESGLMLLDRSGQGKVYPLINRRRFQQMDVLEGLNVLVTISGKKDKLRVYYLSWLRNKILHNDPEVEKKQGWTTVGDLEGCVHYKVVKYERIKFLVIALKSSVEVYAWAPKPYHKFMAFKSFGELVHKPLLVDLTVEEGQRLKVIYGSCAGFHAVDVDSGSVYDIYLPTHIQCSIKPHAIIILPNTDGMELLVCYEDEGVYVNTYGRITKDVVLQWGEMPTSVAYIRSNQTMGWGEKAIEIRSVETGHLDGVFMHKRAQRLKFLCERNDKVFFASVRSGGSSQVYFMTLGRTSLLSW
Chain of ProfilerPro Kinase Selectivity Assay Kit kinases (Homo sapiens, UniProt P06241) (P06241 2-537 limits assumed): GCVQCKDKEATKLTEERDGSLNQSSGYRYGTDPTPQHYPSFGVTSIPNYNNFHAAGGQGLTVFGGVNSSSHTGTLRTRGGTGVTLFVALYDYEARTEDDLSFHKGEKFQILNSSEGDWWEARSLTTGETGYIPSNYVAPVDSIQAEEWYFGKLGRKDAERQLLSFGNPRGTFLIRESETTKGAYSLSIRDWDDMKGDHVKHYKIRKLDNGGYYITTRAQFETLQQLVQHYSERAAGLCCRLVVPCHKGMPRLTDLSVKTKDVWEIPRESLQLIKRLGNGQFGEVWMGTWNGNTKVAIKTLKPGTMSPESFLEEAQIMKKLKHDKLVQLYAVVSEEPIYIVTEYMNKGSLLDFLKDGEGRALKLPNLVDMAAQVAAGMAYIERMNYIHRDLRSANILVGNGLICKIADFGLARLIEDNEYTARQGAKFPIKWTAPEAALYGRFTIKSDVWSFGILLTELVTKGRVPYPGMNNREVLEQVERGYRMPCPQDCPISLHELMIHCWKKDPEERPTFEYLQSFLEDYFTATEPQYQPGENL
Chain of ProfilerPro Kinase Selectivity Assay Kit kinases (Homo sapiens, UniProt P28482) (P28482 2-360 limits assumed): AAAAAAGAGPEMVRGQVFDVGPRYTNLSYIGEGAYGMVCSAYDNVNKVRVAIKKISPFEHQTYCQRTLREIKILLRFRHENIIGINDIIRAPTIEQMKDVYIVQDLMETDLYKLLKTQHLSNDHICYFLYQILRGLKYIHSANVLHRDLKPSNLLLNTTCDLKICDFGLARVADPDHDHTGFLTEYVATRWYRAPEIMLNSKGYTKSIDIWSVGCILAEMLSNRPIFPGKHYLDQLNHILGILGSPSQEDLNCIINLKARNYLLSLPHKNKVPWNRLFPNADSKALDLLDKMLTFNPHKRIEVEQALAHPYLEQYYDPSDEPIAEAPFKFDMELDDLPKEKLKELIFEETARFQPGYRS

| POC (Percent of control) AKT2 [1] | POC (Percent of control) BTK [2] | POC (Percent of control) MST2 [3] | POC (Percent of control) PIM2 [4] | POC (Percent of control) INSR [5] | POC (Percent of control) MARK1 [6] | POC (Percent of control) FYN [7] | POC (Percent of control) CHK2 [8] | POC (Percent of control) HGK [9] | POC (Percent of control) CDK2 [10] | POC (Percent of control) PAK2 [11] | POC (Percent of control) RSK1 [12] | POC (Percent of control) LCK [13] | POC (Percent of control) PKC zeta [14] | POC (Percent of control) ROCK2 [15] | POC (Percent of control) PKA alpha [16] | POC (Percent of control) SYK [17] | POC (Percent of control) MAPKAPK2 [18] | POC (Percent of control) SRC [19] | POC (Percent of control) AKT1 [20] | SMILES | other results |
| --- | --- | --- | --- | --- | --- | --- | --- | --- | --- | --- | --- | --- | --- | --- | --- | --- | --- | --- | --- | --- | --- |
| 89 POC | 97 POC | 98 POC | 96 POC | 95 POC | 131 POC | 97 POC | 94 POC | 85 POC | 100 POC | 98 POC | 100 POC | 92 POC | 98 POC | 106 POC | 99 POC | 99 POC | 100 POC | 89 POC | 94 POC | COc1ccc(Nc2ncc(Cc3ccc(S(C)(=O)=O)cc3)cc2-c2nc(C)nc3[nH]cnc23)cn1 [Example 103, N-(6-methoxypyridin-3-yl)-3-(2-methyl-9H-purin-6-yl)-5-(4-(methylsulfonyl)benzyl)pyridin-2-amine] | POC (Percent of control) CK1 delta [21]: 120 POC; POC (Percent of control) CAMK4 [22]: 95 POC; POC (Percent of control) FLT3 [23]: 85 POC; POC (Percent of control) AURORA A [24]: 100 POC; POC (Percent of control) CHK1 [25]: 107 POC; POC (Percent of control) ERK2 [26]: 94 POC; POC (Percent of control) IGF1R [27]: 91 POC; POC (Percent of control) PRAK [28]: 103 POC; POC (Percent of control) DYRK1a [29]: 83 POC; POC (Percent of control) KDR [30]: 91 POC; POC (Percent of control) LYN [31]: 97 POC |
| 95 POC | 99 POC | 84 POC | 106 POC | 71 POC | 102 POC | 98 POC | 97 POC | 91 POC | 84 POC | 99 POC | 89 POC | 101 POC | 99 POC | 95 POC | 84 POC | 83 POC | 101 POC | 89 POC | 98 POC | Cc1nc(N)cc(-c2cccnc2Nc2cccc3[nH]ncc23)n1 [Example 27, N-(3-(6-Amino-2-Methylpyrimidin-4-yl)Pyridin-2-yl)-1H-Indazol-4-Amine] | POC (Percent of control) CK1 delta [21]: 43 POC; POC (Percent of control) CAMK4 [22]: 56 POC; POC (Percent of control) FLT3 [23]: 73 POC; POC (Percent of control) AURORA A [24]: 78 POC; POC (Percent of control) CHK1 [25]: 103 POC; POC (Percent of control) ERK2 [26]: 97 POC; POC (Percent of control) IGF1R [27]: 41 POC; POC (Percent of control) PRAK [28]: 98 POC; POC (Percent of control) DYRK1a [29]: 92 POC; POC (Percent of control) KDR [30]: 81 POC; POC (Percent of control) LYN [31]: 91 POC |
| 74 POC | 93 POC | 101 POC | 104 POC | 99 POC | 107 POC | 87 POC | 99 POC | 91 POC | 93 POC | 99 POC | 105 POC | 61 POC | 102 POC | 93 POC | 16 POC | 95 POC | 101 POC | 79 POC | 50 POC | Cc1cnc(Nc2cccc3[nH]ncc23)c(-c2nc(C)nc(N)n2)c1 [Example 47, N-(3-(4-Amino-6-Methyl-1,3,5-Triazin-2-yl)-5-Methylpyridine-2-yl)-1H-Indazol-4-Amine] | POC (Percent of control) CK1 delta [21]: 69 POC; POC (Percent of control) CAMK4 [22]: 91 POC; POC (Percent of control) FLT3 [23]: 89 POC; POC (Percent of control) AURORA A [24]: 85 POC; POC (Percent of control) CHK1 [25]: 92 POC; POC (Percent of control) ERK2 [26]: 104 POC; POC (Percent of control) IGF1R [27]: 82 POC; POC (Percent of control) PRAK [28]: 103 POC; POC (Percent of control) DYRK1a [29]: 82 POC; POC (Percent of control) KDR [30]: 86 POC; POC (Percent of control) LYN [31]: 55 POC |
| 93 POC | 102 POC | 98 POC | 93 POC | 97 POC | 92 POC | 99 POC | 97 POC | 95 POC | 96 POC | 97 POC | 99 POC | 101 POC | 109 POC | 101 POC | 99 POC | 80 POC | 100 POC | 101 POC | 102 POC | COc1ccc(Nc2ncc(CN3CCN(C(C)=O)CC3)cc2-c2nc(C)nc3[nH]cnc23)cn1 [Example 89, 1-(4-((6-(6-methoxypyridin-3-ylamino)-5-(2-methyl-9H-purin-6-yl)pyridin-3-yl)methyl)piperazin-1-yl)ethanone] | POC (Percent of control) CK1 delta [21]: 98 POC; POC (Percent of control) CAMK4 [22]: 109 POC; POC (Percent of control) FLT3 [23]: 95 POC; POC (Percent of control) AURORA A [24]: 108 POC; POC (Percent of control) CHK1 [25]: 99 POC; POC (Percent of control) ERK2 [26]: 106 POC; POC (Percent of control) IGF1R [27]: 98 POC; POC (Percent of control) PRAK [28]: 99 POC; POC (Percent of control) DYRK1a [29]: 88 POC; POC (Percent of control) KDR [30]: 92 POC; POC (Percent of control) LYN [31]: 96 POC |
